Source: patent US20220125784A1, “METHODS AND COMPOUNDS FOR INHIBITION OF INACTIVATION OF VOLTAGE-GATED SODIUM CHANNELS” (SIMON FRASER UNIVERSITY, priority 2019, published 2022)
Like-named read-outs stand apart in the source and are kept apart here.

How the values were obtained:
Assay type in all cases: cell-based
[1] = target: T1, cardiac (Nav1.5) sodium channel (Homo sapiens, UniProt Q14524); test: High-throughput patch clamp (QPatch/Qube 384), double voltage-pulse protocol, stable HEK293 Nav1.5; conditions: for deceleration of fast inactivation onset kinetics compared to control: preconditioning −120 mV
T1 construct: expressed in transfected cells
Description: (§1) In another set of studies, we used high-throughput patch clamp techniques using the QPatch (Qube) 384 to screen compounds against both neuronal and cardiac sodium channels. We used a different electrophysiology assay (double voltage-pulse protocol; FIG. 3C) to detect potentiators, inhibitors, and compounds that do both. The protocol assesses these parameters at both rest and partially inactivated holding potentials. For this assay, we used nine compounds from Table 2 that were diluted to 50 μM in DMSO for biophysical assessment of channel gating. The extracellular solution used in these experiments was Ringer solution.
(§2) The nine compounds were screened against the wild type (WT) cardiac (Nav1.5) and neuronal (Nav1.1) sodium channel α-subunits stably expressed in Human Embryonic Kidney (HEK293) along with the β1-subunit.
(§3) Currents were assessed by a test pulse of 0 mV from a holding potential at rest (−120 mV) before preconditioning at the appropriate V1/2 for the sodium channel subtype (V1/2=−90 mV and V1/2=−65 mV for Nav1.5 and Nav1.1, respectively) for 10 s. Parameters were tested following 5 min of incubation with the compounds and normalized to control (vehicle). Peak current, the time constant of inactivation, and the area under the curve (AUC) were measured.

[2] = target: T2, neuronal (Nav1.1) sodium channel (Homo sapiens, UniProt P35498); test: High-throughput patch clamp (QPatch/Qube 384), double voltage-pulse protocol, stable HEK293 Nav1.1
T2 construct: expressed in transfected cells
Description: as §1, §2, §3

WT Nav1.5-α subunits [3] = target: T3, WT Nav1.5-α subunits (Homo sapiens, UniProt Q14524); test: Whole-cell patch clamp, single voltage-pulse protocol (peak INa, conductance, fast inactivation) in transiently transfected HEK293 cells; conditions: for Peak INa −20 mV: normalized peak INa, 37° C.
T3 construct: expressed in transfected cells; host or cells: HEK293 (transient transfection)
Description: (§4) In one set of studies, we used a whole-cell patch clamp technique with single voltage-pulse protocols (FIGS. 3A-B) to characterize compounds ZINC38767171, ZINC39699427, ZINC40014265, ZINC64470729, ZINC64470737 and ZINC64470745. Whole-cell patch clamp was performed in extracellular solution containing (in mM): 140 NaCl, 4 KCl, 2 CaCl2, 1 MgCl2, and 10 HEPES (pH 7.4 adjusted with CsOH). The intracellular pipettes were dipped in dental wax and thermally polished to attain a resistance of 1.0-1.5 MΩ. The intracellular solutions contained (in mM): 130 CsF, 10 NaCl, 10 HEPES, and 10 EGTA titrated to pH 7.4. The six compounds, ZINC38767171, ZINC39699427, ZINC40014265, ZINC64470729, ZINC64470737 and ZINC64470745, chosen for electrophysiology characterization, ordered from MolPort (Easy compound ordering services), were diluted to 10 μM, 50 μM, and 100 μM in extracellular solution for biophysical assessment of channel gating.
(§5) The six compounds were screened against wild type (WT) Nav1.5-α subunits at the optimal physiological temperature of 37° C. Human Embryonic Kidney (HEK293) cells were transfected with WT Nav1.5-α subunits (transient transfections). The α subunits were co-expressed with the β1 subunit and eGFP (enhanced green fluorescence protein) in a 2:1:2 ratio, respectively.
Conductance was measured by a protocol that depolarized the membrane from −100 mV to +80 mV in increments of +5 mV for 19 ms. Prior to the test pulse, channels were allowed to recover from fast inactivation at −130 mV for 197 ms. The tested compounds had no effect on the conductance midpoint (FIGS. 6A-F).
At voltages greater than −50 mV, the fast inactivation T values were calculated from the mono-exponential fit to the decay of sodium current.

WT Nav1.5-α subunits [4] = target: T3, WT Nav1.5-α subunits; test: Whole-cell patch clamp, use-dependence (slow inactivation) protocol at 6 Hz in transiently transfected HEK293 cells
Description: as §4, §5
Slow inactivation (SI) was indirectly determined by measuring use-dependence, which is a physiologically-relevant protocol. The protocol includes a series of 500 110 ms depolarizing pulses to 0 mV followed by a 55 ms-90 mV recovery pulse at a frequency 6 Hz. With repetitive depolarizations, Nav1.5 channels accumulate into slow inactivation.

[5] = HEK293, holding potential −120 mV, read-out: Normalized inhibition of peak sodium current
[6] = 50 μM, holding potential −120 mV

T1 sequence (Q14524 whole entry): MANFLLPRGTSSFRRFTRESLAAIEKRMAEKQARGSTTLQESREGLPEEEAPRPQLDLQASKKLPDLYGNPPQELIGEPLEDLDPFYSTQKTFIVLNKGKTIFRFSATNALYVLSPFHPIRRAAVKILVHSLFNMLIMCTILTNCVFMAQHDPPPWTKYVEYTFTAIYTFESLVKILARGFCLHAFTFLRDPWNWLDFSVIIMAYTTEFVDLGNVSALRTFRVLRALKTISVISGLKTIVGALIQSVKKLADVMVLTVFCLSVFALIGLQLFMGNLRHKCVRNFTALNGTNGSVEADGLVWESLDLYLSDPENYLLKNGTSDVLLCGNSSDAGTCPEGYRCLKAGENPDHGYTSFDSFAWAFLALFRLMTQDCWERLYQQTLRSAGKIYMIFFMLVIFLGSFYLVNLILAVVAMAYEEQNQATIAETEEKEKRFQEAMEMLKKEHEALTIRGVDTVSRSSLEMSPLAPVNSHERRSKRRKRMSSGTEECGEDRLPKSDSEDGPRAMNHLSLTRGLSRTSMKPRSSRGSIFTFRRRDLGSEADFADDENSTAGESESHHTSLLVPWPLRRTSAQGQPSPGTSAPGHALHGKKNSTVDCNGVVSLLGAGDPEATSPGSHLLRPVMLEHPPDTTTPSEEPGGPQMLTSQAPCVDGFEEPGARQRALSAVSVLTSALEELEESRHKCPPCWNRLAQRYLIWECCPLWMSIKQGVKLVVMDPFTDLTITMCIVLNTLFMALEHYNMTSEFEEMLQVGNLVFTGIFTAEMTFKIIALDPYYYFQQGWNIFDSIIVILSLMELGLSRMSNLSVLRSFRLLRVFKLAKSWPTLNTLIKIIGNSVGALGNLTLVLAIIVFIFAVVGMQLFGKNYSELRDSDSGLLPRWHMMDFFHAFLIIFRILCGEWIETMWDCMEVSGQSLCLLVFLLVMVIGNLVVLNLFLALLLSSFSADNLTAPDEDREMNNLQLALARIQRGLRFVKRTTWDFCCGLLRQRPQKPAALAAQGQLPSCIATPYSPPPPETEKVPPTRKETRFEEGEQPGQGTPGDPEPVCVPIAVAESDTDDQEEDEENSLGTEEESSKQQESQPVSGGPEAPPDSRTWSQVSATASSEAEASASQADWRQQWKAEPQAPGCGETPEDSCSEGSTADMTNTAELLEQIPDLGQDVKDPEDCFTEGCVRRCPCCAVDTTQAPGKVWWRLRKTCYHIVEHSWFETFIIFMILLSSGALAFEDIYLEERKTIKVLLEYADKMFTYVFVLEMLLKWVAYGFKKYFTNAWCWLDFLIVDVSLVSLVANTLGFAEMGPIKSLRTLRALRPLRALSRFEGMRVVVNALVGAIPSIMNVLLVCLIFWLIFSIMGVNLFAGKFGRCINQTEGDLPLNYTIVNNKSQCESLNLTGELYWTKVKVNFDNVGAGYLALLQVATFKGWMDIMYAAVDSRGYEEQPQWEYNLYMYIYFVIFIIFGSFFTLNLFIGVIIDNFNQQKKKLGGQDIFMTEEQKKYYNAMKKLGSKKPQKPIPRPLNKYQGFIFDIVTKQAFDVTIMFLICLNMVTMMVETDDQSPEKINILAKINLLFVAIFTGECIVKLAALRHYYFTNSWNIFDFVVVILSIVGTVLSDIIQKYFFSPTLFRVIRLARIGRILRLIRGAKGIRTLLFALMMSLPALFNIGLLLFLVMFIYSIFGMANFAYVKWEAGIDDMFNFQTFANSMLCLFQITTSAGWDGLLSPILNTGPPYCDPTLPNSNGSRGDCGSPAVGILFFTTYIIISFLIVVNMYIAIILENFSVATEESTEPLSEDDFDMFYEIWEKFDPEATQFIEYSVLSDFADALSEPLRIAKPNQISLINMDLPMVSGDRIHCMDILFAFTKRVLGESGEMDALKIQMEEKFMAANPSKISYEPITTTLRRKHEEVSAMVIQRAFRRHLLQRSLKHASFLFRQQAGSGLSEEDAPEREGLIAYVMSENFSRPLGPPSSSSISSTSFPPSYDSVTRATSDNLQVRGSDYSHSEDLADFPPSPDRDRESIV
T3 sequence (Q14524 whole entry): as above

In the case of Cc1nc(-n2cccc2)sc1C(=O)N=c1[nH]c2ccccc2[nH]1 [ZINC12323863, N-(1H-benzimidazol-2-yl)-4-methyl-2-pyrrol-1-yl-thiazole-5-carboxamide], the “deceleration of fast inactivation onset kinetics compared to control” value ([1]; 50 μM) is reported as 1.5 fold, the inhibition at 50 µM [1, 5] is reported as roughly 32% and the inhibition at 50 µM ([1]; HEK293, −90 mV for 10 s, read-out: Normalized inhibition of peak sodium current after 10 s pulse to mid-voltage potential) is reported as roughly 80%. The “effect on tau of inactivation from holding potential −120 mV” value ([2]; 50 μM) was “accelerates inactivation”, the “normalized area under curve (AUC) ratio of activated sodium current” value [2, 6] was “substantially reduces” and the inhibition at 50 µM [2, 5] was roughly 32%. The inhibition at 50 µM ([2]; HEK293, −65 mV for 10 s, read-out: Normalized inhibition of peak sodium current after 10 s pulse to mid-voltage potential) was roughly 80%.
With CN(C)[C@@H](CNC(=O)c1ccc2c(c1)=NC(=O)C(=O)N=2)c1ccco1 [ZINC40014265, N-[(2S)-2-(dimethylamino)-2-(2-furyl)ethyl]-2,3-dioxo-quinoxaline-6-carboxamide] the “% Block −20 mV” value (WT Nav1.5-α subunits [3]; 10 μM) was −20.00%, the “fast inactivation onset time constant FI +10 mV” value (WT Nav1.5-α subunits [3]; 10 μM) was 0.23 ± 0.02 ms and the “fast inactivation onset time constant FI −10 mV” value (WT Nav1.5-α subunits [3]; 10 μM) was 0.33 ± 0.03 ms. The “fast inactivation onset time constant FI −30 mV” value (WT Nav1.5-α subunits [3]; 10 μM) was 0.63 ± 0.07 ms, the “fast inactivation onset time constant FI −50 mV” value (WT Nav1.5-α subunits [3]; 10 μM) was 2.98 ± 0.84 ms and the “Peak INa −20 mV” value (WT Nav1.5-α subunits [3]; 10 μM) was −0.80 ± 0.06. For the same molecule, the “% Block −20 mV” value (WT Nav1.5-α subunits [3]; 50 μM) was −37.00%, the “fast inactivation onset time constant FI +10 mV” value (WT Nav1.5-α subunits [3]; 50 μM) was 0.25 ± 0.03 ms and the “fast inactivation onset time constant FI −10 mV” value (WT Nav1.5-α subunits [3]; 50 μM) was 0.37 ± 0.05 ms. The “fast inactivation onset time constant FI −30 mV” value (WT Nav1.5-α subunits [3]; 50 μM) was 0.69 ± 0.11 ms, the “fast inactivation onset time constant FI −50 mV” value (WT Nav1.5-α subunits [3]; 50 μM) was 2.18 ± 0.70 ms and the “Peak INa −20 mV” value (WT Nav1.5-α subunits [3]; 50 μM) was −0.63 ± 0.06. For the same molecule, the “% Block −20 mV” value (WT Nav1.5-α subunits [3]; 100 μM) was −41.00%, the “fast inactivation onset time constant FI +10 mV” value (WT Nav1.5-α subunits [3]; 100 μM) was 0.26 ± 0.07 ms and the “fast inactivation onset time constant FI −10 mV” value (WT Nav1.5-α subunits [3]; 100 μM) was 0.37 ± 0.09 ms. For the same molecule, the “fast inactivation onset time constant FI −30 mV” value (WT Nav1.5-α subunits [3]; 100 μM) was 0.69 ± 0.17 ms, the “fast inactivation onset time constant FI −50 mV” value (WT Nav1.5-α subunits [3]; 100 μM) was 2.17 ± 0.73 ms and the “Peak INa −20 mV” value (WT Nav1.5-α subunits [3]; 100 μM) was −0.59 ± 0.06. For the same molecule, the “Peak INa Slope” value (WT Nav1.5-α subunits [3]; Hill curve slope) was 1.064, the IC50 (WT Nav1.5-α subunits [3]; Hill curve, single voltage-pulse protocol) was 12.6 µM and the “UDI Block Slope” value (WT Nav1.5-α subunits [4]; Hill curve slope) was 0.511. For the same molecule, the IC50 (WT Nav1.5-α subunits [4]; Hill curve, use-dependence at 6 Hz, read-out: UDI Block IC50) was 269 µM, the “effect on peak INa” value [1, 6] was “did not inhibit peak sodium current” and the “normalized area under curve (AUC) ratio of activated sodium current” value [1, 6] was “slightly increased”. The “deceleration of fast inactivation onset kinetics compared to control” value ([1]; 50 μM) was 1.5 fold.
